These results are taken from patent US6861440B2, “DPP IV inhibitors” (Hoffmann-La Roche Inc., priority 2001, dated 2005).

T1 sequence (P27487 31-766): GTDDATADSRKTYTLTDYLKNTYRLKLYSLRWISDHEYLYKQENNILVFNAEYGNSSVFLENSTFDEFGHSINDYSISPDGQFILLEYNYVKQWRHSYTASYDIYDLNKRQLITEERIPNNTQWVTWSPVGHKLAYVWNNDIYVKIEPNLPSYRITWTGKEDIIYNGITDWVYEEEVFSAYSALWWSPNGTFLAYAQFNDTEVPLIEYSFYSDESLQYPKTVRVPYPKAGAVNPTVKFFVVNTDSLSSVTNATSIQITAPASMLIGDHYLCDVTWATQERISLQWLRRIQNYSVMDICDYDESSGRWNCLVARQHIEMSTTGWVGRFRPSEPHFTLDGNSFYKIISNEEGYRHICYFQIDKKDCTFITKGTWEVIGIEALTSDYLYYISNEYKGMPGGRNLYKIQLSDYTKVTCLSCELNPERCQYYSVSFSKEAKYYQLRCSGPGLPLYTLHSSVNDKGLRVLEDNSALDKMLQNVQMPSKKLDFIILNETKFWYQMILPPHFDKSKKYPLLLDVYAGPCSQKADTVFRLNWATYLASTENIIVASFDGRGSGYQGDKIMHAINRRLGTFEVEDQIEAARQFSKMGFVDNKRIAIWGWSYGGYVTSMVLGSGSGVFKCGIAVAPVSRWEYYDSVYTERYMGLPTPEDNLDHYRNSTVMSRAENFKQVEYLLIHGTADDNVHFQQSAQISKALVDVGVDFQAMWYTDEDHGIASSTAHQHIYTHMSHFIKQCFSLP

The assay has as its target T1, human DPP-IV (Homo sapiens, UniProt P27487).
T1 construct: made in house; host or cells: Pichia pastoris
The assay can be described thus: DPP-IV activity assay (fluorogenic or colorimetric substrate), IC50 determination. In kind it is biochemical. The following applies: natural human DPP-IV from human plasma pool or recombinant human DPP-IV; 37° C., pH 7.8. As to the method: Activity of DPP-IV inhibitors are tested with natural human DPP-IV derived from a human plasma pool or with recombinat human DPP-IV. Human citrate plasma from different donors is pooled, filterted through a 0.2 micron membrane under sterile conditions and aliquots of 1 ml are shock frozen and stored at −120° C. until used. In the calorimetric DPP-IV assay 5 to 10 μl human plasma and in the fluorometric assay 1.0 μl of human plasma in a total assay volume of 100 μl is used as an enzyme source. […] Human DPP-IV is expressed and purified from the cultur medium using conventional column chromatography including size exclusion and anion and cation chromatography. […] In the calorimetric DPP-IV assay 20 ng rec.-h DPP-IV and in the fluorometric assay 2 ng rec-h DPP-IV in a total assay volume of 100 μl is used as an enzyme source.
A 20 mM stock solution in 10% DMF/H2O is stored at −20° C. until use.
A 10 mM stock solution in 10% MeOH/H2O is stored at −20° C. until use.
Fluorescence is detected in a Perkin Elmer Luminescence Spectrometer LS 50B at an excitation wavelength of 400 nm and an emission wavelength of 505 nm continuously every 15 seconds for 10 to 30 minutes. Initial rate constants are calculated by best fit linear regression.
Initial rate constants are calculated by best fit linear regression.
DPP-IV activity assays are performed in 96 well plates at 37° C. in a total assay volume of 100 μl. The assay buffer consists of 50 mM Tris/HCl pH 7.8 containing 0.1 mg/ml BSA and 100 mM NaCl. Test compounds are solved in 100% DMSO, diluted to the desired concentration in 10% DMSO/H2O. The final DMSO concentration in the assay is 1% (v/v). […] Compounds are with (10 minutes at 37° C.) and without preincubation with the enzyme. Enzyme reactions are started with substrate application follwed by immediate mixing.
Kinetic parameters of the enzyme reaction are calculated at at least 5 different substrate concentrations and at least 5 different test compound concentrations.
As to `Cc1c(C)n(C[C@H](C)NCC(=O)N2CCC[C@H]2C#N)c2ccccc12` [Example 7, (2S)-1-{[(1S)-2-(2,3-Dimethyl-indol-1-yl)-1-methyl-ethylamino]-acetyl}-pyrrolidine-2-carbonitrile], the IC50 (usually the point on the concentration scale where inhibition reaches its midpoint) turned out to be 88 nM.

On to `CC(C)(CNc1ccc(-c2cccc(C(F)(F)F)c2)cn1)NCC(=O)N1CCC[C@H]1C#N` [Example 119, (2S)-1-({1,1-Dimethyl-2-[5-(3-trifluoromethyl-phenyl)-pyridin-2-ylamino]-ethylamino}-acetyl)-pyrrolidine-2-carbonitrile], for which the IC50 came to 7 nM. With `CC(C)(CNc1cccc(-c2ccccc2)n1)NCC(=O)N1CCC[C@H]1C#N` [Example 129, (2S)-1-{[1,1-Dimethyl-2-(6-phenyl-pyridin-2-ylamino)-ethylamino]-acetyl}-pyrrolidine-2-carbonitrile] the figure was 1 nM. Take `Cc1cccc(-c2nc(CC(C)(C)NCC(=O)N3CCC[C@H]3C#N)c(C)[nH]2)c1` [Example 188, (2S)-1-{[1,1-Dimethyl-2-(5-methyl-2-m-tolyl-1H-imidazol-4-yl)-ethylamino]-acetyl}-pyrrolidine-2-carbonitrile]: the IC50 came to 1 nM.

`COc1cc2c(C(=O)C(F)(F)F)cn(C[C@H](C)NCC(=O)N3CCC[C@H]3C#N)c2cc1OC` [Example 23, (2S)-1-{[(1S)-2-(5,6-Dimethoxy-3-trifluoroacetyl-indol-1-yl)-1-methyl-ethylamino]-acetyl}-pyrrolidine-2-carbonitrile]: the half-maximal inhibitory concentration (IC50) was found to be 128 nM.
